Data taken from PubChem BioAssay (NCI).
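Following 48 hours of exposure in 96-well plates, responses at five concentrations were used to interpolate endpoints linearly. The concentration for 50% growth inhibition is given as GI50. The concentration for full growth arrest is given as TGI.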

Experiments:
Test in all cases: DTP human tumour cell line panel, 48 h
U251 CNS = test system: U251 CNS
HS 578T breast = test system: HS 578T breast
NCI-H23 lung = test system: NCI-H23 lung
NCI-H522 lung = test system: NCI-H522 lung
MOLT-4 leukemia = test system: MOLT-4 leukemia
HT29 colon = test system: HT29 colon
SK-OV-3 ovarian = test system: SK-OV-3 ovarian
NCI-H460 lung = test system: NCI-H460 lung
786-0 renal = test system: 786-0 renal
SR leukemia = test system: SR leukemia

| SMILES | GI50 (U251 CNS) | TGI (U251 CNS) | GI50 (HS 578T breast) | TGI (HS 578T breast) | GI50 (NCI-H23 lung) | TGI (NCI-H23 lung) | GI50 (NCI-H522 lung) | TGI (NCI-H522 lung) | GI50 (MOLT-4 leukemia) | TGI (MOLT-4 leukemia) | GI50 (HT29 colon) | TGI (HT29 colon) | GI50 (SK-OV-3 ovarian) | TGI (SK-OV-3 ovarian) | GI50 (NCI-H460 lung) | TGI (NCI-H460 lung) | GI50 (786-0 renal) | TGI (786-0 renal) | GI50 (SR leukemia) | TGI (SR leukemia) |
| --- | --- | --- | --- | --- | --- | --- | --- | --- | --- | --- | --- | --- | --- | --- | --- | --- | --- | --- | --- | --- |
| COc1cc2ncn(-c3cc(OCCc4ccccc4)c(C(N)=O)s3)c2cc1OC | > 25 µM | > 25 µM | > 16.1 µM | > 25 µM | > 25 µM | > 25 µM | > 18.1 µM | > 25 µM | 12.4 µM | > 25 µM | 13.6 µM | > 25 µM | > 25 µM | > 25 µM | > 25 µM | > 25 µM | > 25 µM | > 25 µM | 13.6 µM | > 25 µM |
| CCc1ccccc1NC(=O)c1sc2nc3c(cc2c1N)C(=O)CCC3 | 0.608 µM | 51.7 µM | 0.398 µM | > 100 µM | 0.711 µM | > 100 µM | 0.502 µM | > 100 µM | 5.29 µM | > 100 µM | 0.372 µM | 29.5 µM | 0.537 µM | 75.7 µM | 0.367 µM | > 100 µM | 0.722 µM | > 74.2 µM | 0.406 µM | > 100 µM |
| O=C(Nc1ccc(CO)cc1)c1coc2ccccc2c1=O | > 100 µM | > 100 µM | 16.2 µM | 78.1 µM | > 100 µM | > 100 µM | > 100 µM | > 100 µM | > 100 µM | > 100 µM | > 100 µM | > 100 µM | > 100 µM | > 100 µM | > 100 µM | > 100 µM | > 100 µM | > 100 µM | > 100 µM | > 100 µM |
| O=C(Nc1ccc(-c2ccccc2)cc1)C1CCN(S(=O)(=O)c2ccccc2Cl)CC1 | 18.8 µM | 67.3 µM | 12.6 µM | 71.4 µM | 76.2 µM | > 100 µM | 22.4 µM | > 100 µM | > 100 µM | > 100 µM | > 100 µM | > 100 µM | 57.4 µM | > 100 µM | 40.8 µM | > 100 µM | 23.6 µM | 77.9 µM | 36.2 µM | > 100 µM |
| COc1ccc(OC)c2c(/C=C/c3ccc(N(C)C)cc3)ccnc12 |  | > 10 µM |  | > 10 µM |  | > 10 µM |  | > 10 µM |  | > 10 µM |  | > 10 µM |  | > 10 µM |  | > 10 µM |  | > 10 µM |  |  |
| COc1ccc(-c2c[nH]c(=S)n2-c2ccc(OC)cc2)cc1 | > 50 µM | > 50 µM | > 50 µM | > 50 µM | > 50 µM | > 50 µM | > 50 µM | > 50 µM | > 50 µM | > 50 µM | > 50 µM | > 50 µM |  |  | > 50 µM | > 50 µM | > 50 µM | > 50 µM | > 50 µM | > 50 µM |
| NC(N)=NCCCCCNc1noc(Cc2c[nH]c3cc(Br)ccc23)n1 | 2.78 µM | 14.9 µM | 9.08 µM | 90.2 µM | 8.2 µM | 28.7 µM | 13.6 µM | 46.5 µM | 8.12 µM | 36.3 µM | 19.5 µM | > 100 µM | 24 µM | > 100 µM | 12.4 µM | 43.3 µM | 23 µM | 86.3 µM | 13.8 µM | 40 µM |
| CCOC(=O)c1c[nH]c2oc(/C=N/N3CC(CN4CCOCC4)OC3=O)cc2c1=O (stereo not drawn) |  | > 100 µM |  | > 100 µM |  | > 100 µM |  |  |  | > 100 µM |  | > 100 µM |  | > 100 µM |  | > 100 µM |  | > 100 µM |  | > 100 µM |
| COc1ccc(Nc2c3ccccc3nc3occ(Cl)c23)cc1 |  |  | 0.0237 µM | 61.3 µM | 0.0549 µM | 28.8 µM | < 0.0119 µM | 6.92 µM | 0.0266 µM | > 44.5 µM | < 0.0145 µM | > 34.8 µM | 0.765 µM |  | < 0.01 µM | 8.18 µM | 0.0335 µM | 21 µM | < 0.01 µM | 8.36 µM |
| Cc1cc2c(cc1Cl)SC(=Nc1ccc(Cl)cc1)N(S(=O)(=O)c1ccccc1)S2(=O)=O | 5.96 µM | 19.5 µM | 20.7 µM | 45.9 µM | 1.55 µM | 5.96 µM | 12.4 µM | 52.8 µM |  |  |  |  | 12 µM | 44.4 µM | 11.8 µM | 29.2 µM | 4.54 µM | 18.1 µM | 0.342 µM | > 100 µM |
| Oc1cn(-c2ccc(Cl)cc2)nc1-c1n[nH]c(=S)n1C1CCCCC1 | 0.467 µM | > 100 µM | 0.28 µM |  | 0.322 µM | 1.98 µM | 0.373 µM | > 100 µM | 0.5 µM | > 29 µM | 30.5 µM | > 100 µM | 0.451 µM | > 44.5 µM | 0.334 µM | > 100 µM | 1.82 µM | > 100 µM | < 0.0413 µM | > 100 µM |
| COc1ccc(-c2oc3cc(O)c(OC)c(O)c3c(=O)c2OC)cc1O | 0.0708 µM | > 100 µM | 0.037 µM | 0.715 µM | 0.443 µM | > 100 µM | 0.0589 µM | 7.87 µM | 0.509 µM | > 100 µM | 3.5 µM | > 100 µM | 0.207 µM | 16.4 µM | 0.138 µM | 4.34 µM | 0.578 µM | 7.42 µM | 0.039 µM | > 100 µM |
| COc1ccc2[nH]c3c4c(ccc3c2c1)C(=O)C=CC4=O |  | 36.5 µM |  | 71.5 µM |  | 30.2 µM |  | 3.66 µM |  | 3.1 µM |  | 46.9 µM |  | > 100 µM |  | 54.1 µM |  | 24.2 µM |  | 2.79 µM |
| COCCOc1cnc2ccn([C@H](C)c3nnc4c(F)cc(-c5cnn(C)c5)cn34)c(=O)c2c1 | > 100 µM | > 100 µM | 82.7 µM | > 100 µM | > 100 µM | > 100 µM | > 100 µM | > 100 µM | > 100 µM | > 100 µM | > 100 µM | > 100 µM | > 100 µM | > 100 µM | > 100 µM | > 100 µM | > 100 µM | > 100 µM | > 100 µM | > 100 µM |
